# Reference: US7476764B2, “Phenylcarboxyamides as beta-secretase inhibitors” (Bristol-Myers Squibb Company, priority 2005, dated 2009)
# Where a name gives a salt, the structure may show the parent alone.
# Target: T1, BACE1 enzyme (Homo sapiens, UniProt P56817)
# T1 construct: The HEK293-9B.A1 cell line, which overexpresses the BACE1 enzyme, was derived from HEK293 cells; endogenous in cells; washed 48,000 x g pellet of the cell homogenate
# Assay: Radioligand displacement assay with a radiolabeled BACE inhibitor on HEK293-9B.A1 cell homogenate
# Assay type: binding
# Details: displacement of 1 nM tritiated radioligand, HEK293-9B.A1 homogenate, pH 5.0, 1.5 hr at 25° C.; read-out: Activity Rating (activity based on IC50 values)
# Description: Radioligand displacement assays with a radiolabeled BACE inhibitor (WO 2004 013098, compound 3, where the methoxy group is substituted for C(^3H)3) were carried out using standard methods (Keen, M. (1999) in Receptor Binding Techniques (Walker, J. M. ed) p. 106 Humana Press, Totowa, N.J.). The HEK293-9B.A1 cell line, which overexpresses the BACE1 enzyme, was derived from HEK293 cells (Simmons, N. L. (1990) A cultured human renal epitheloid cell line responsive to vasoactive intestinal peptide. Exp. Physiol. 75:309-19.) by RAGE™ (Harrington, J. J. et al. (2001) Creation of genome-wide protein expression libraries using random activation of gene expression. Nat. Biotechnol. 19:440-5; U.S. Pat. Nos. 6,410,266 and 6,361,972). T225 flask cultures of HEK293-9B.A1 were grown to 80% confluency in DMEM supplemented with 2 mM L-glutamine, 10 μg/ml penicillin, 10 μg/ml streptomycin, 3 μg/ml puromycin, 100 nM methotrexate, and 10% fetal bovine serum (Invitrogen, Carlsbad, Calif.), harvested, and resuspended at 2×10^8 cells per 10 ml of lysis buffer consisting of 50 mM HEPES pH 7.0 containing a protease inhibitor cocktail of AEBSF 104 μM, aprotinin 80 nM, leupeptin 2 μM, bestatin 4 μM, pepstatin A 1.5 μM, and E-64 1.4 μM (0.1% of protease inhibitor cocktail P8340, Sigma-Aldrich, St. Louis, Mo.) at 4° C. The resuspended cells were homogenized using a Polytron (Brinkman, Westbury, N.Y.) at setting 6 for 10 sec., then centrifuged at 48,000×g for 10 min. The resulting pellet was washed by repeating the resuspension, homogenization and centrifugation steps. The final pellet was resuspended in buffer at 4° C. to yield a total protein concentration of 5 mg/ml, then aliquots were frozen in liquid nitrogen for further storage at −70° C. Immediately before carrying out a binding assay, an aliquot of cell homogenate was thawed and diluted to a concentration of 100 μg/ml in assay buffer consisting of 50 mM HEPES pH 5.0 and 0.1% CHAPSO. Assays were initiated in polypropylene 96-well plates (Costar, Cambridge, Mass.) by the addition of 200 μl of cell homogenate to 50 μl of assay buffer containing 1 nM radioligand (WO 2004 013098, compound 3, where the methoxy group is substituted for C(^3H)3: 80 Ci/mMol) and various concentrations of unlabelled compounds, and incubated for 1.5 hr. at 25° C. Separation of bound from free radioligand was by filtration on GFF glass fiber filters (Innotech Biosystems International, Lansing, Mich.) using an Innotech cell harvester.
# T1 sequence (P56817 46-501): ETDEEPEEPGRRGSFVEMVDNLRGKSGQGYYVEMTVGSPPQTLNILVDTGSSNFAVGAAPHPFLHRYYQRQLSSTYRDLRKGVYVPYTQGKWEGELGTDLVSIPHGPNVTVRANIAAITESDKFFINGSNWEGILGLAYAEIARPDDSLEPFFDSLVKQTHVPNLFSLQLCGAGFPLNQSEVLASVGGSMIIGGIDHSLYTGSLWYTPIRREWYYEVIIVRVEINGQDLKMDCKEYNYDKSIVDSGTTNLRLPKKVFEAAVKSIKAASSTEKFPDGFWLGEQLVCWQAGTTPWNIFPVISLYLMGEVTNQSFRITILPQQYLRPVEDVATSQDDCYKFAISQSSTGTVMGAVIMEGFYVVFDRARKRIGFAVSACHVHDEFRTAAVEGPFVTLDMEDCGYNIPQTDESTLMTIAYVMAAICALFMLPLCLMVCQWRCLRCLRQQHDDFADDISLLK
row,SMILES,IC50 [nM]
1,"CCCO/N=C(\C)c1cc(C(=O)N[C@@H](Cc2cc(F)cc(F)c2)[C@H](O)CNCc2cccc(OC)c2)cc(S(C)(=O)=O)c1 [Example 19, N-((2S,3R)-4-(3-methoxybenzylamino)-1-(3,5-difluorophenyl)-3-hydroxybutan-2-yl)-3-(methylsulfonyl)-5-((E)-1-(propoxyimino)ethyl)benzamide TFA salt]",100 to 1000
2,"COc1cccc(CNC[C@@H](O)[C@H](Cc2cc(F)cc(F)c2)NC(=O)c2cc(/C(C)=N/OCC(C)C)cc(S(C)(=O)=O)c2)c1 [Example 20, N-((2S,3R)-4-(3-methoxybenzylamino)-1-(3,5-difluorophenyl)-3-hydroxybutan-2-yl)-3-((E)-1-(isobutoxyimino)ethyl)-5-(methylsulfonyl)benzamide TFA salt]",> 1000
3,"C=CCO/N=C(\C)c1cc(C(=O)N[C@@H](Cc2cc(F)cc(F)c2)[C@H](O)CNCc2cccc(OC)c2)cc(S(C)(=O)=O)c1 [Example 21, N-((2S,3R)-4-(3-methoxybenzylamino)-1-(3,5-difluorophenyl)-3-hydroxybutan-2-yl)-3-((E)-1-(allyloxyimino)ethyl)-5-(methylsulfonyl)benzamide TFA salt]",100 to 1000
4,"COc1cccc(CNC[C@@H](O)[C@H](Cc2cc(F)cc(F)c2)NC(=O)c2cc(C(C)=O)cc(N3CCCCS3(=O)=O)c2)c1 [Example 22, N-[(1S,2R)-1-(3,5-difluoro-benzyl)-2-hydroxy-3-(3-methoxy-benzylamino)-propyl]-3-(1,1-dioxo-1λ^6-[1,2]thiazinan-2-yl)-5-acetyl-benzamide TFA salt]",< 100
5,"COc1cccc(CNC[C@@H](O)[C@H](Cc2cc(F)cc(F)c2)NC(=O)c2cc(C(C)O)cc(N3CCCCS3(=O)=O)c2)c1 (stereo partly drawn) [Example 23, N-[(1S,2R)-1-(3,5-difluoro-benzyl)-2-hydroxy-3-(3-methoxy-benzylamino)-propyl]-3-(1,1-dioxo-1λ^6-[1,2]thiazinan-2-yl)-5-(1-hydroxy-ethyl)-benzamide TFA salt]",< 100
6,"CO/N=C(\C)c1cc(C(=O)N[C@@H](Cc2cc(F)cc(F)c2)[C@H](O)CNCc2cccc(OC)c2)cc(N2CCCCS2(=O)=O)c1 [Example 24, N-[(1S,2R)-1-(3,5-difluoro-benzyl)-2-hydroxy-3-(3-methoxy-benzylamino)-propyl]-3-(1,1-dioxo-1λ^6-[1,2]thiazinan-2-yl)-5-{1-[(E)-methoxyimino]-ethyl}-benzamide TFA salt]",< 100
7,"COc1cccc(CNC[C@@H](O)[C@H](Cc2cc(F)cc(F)c2)NC(=O)c2cc(/C(C)=N/OCc3ccccc3)cc(N3CCCCS3(=O)=O)c2)c1 [Example 25, N-[(1S,2R)-1-(3,5-difluoro-benzyl)-2-hydroxy-3-(3-methoxy-benzylamino)-propyl]-3-(1,1-dioxo-1λ^6-[1,2]thiazinan-2-yl)-5-{1-[(E)-benzyloxyimino]-ethyl}-benzamide TFA salt]",< 100
8,"CCCO/N=C(\C)c1cc(C(=O)N[C@@H](Cc2cc(F)cc(F)c2)[C@H](O)CNCc2cccc(OC)c2)cc(N2CCCCS2(=O)=O)c1 [Example 26, N-[(1S,2R)-1-(3,5-difluoro-benzyl)-2-hydroxy-3-(3-methoxy-benzylamino)-propyl]-3-(1,1-dioxo-1λ^6-[1,2]thiazinan-2-yl)-5-{1-[(E)-propoxyimino]-ethyl}-benzamide TFA salt]",< 100
9,"COc1cccc(CNC[C@@H](O)[C@H](Cc2cc(F)cc(F)c2)NC(=O)c2cc(/C(C)=N/OCC(C)C)cc(N3CCCCS3(=O)=O)c2)c1 [Example 27, N-[(1S,2R)-1-(3,5-difluoro-benzyl)-2-hydroxy-3-(3-methoxy-benzylamino)-propyl]-3-(1,1-dioxo-1λ^6-[1,2]thiazinan-2-yl)-5-{1-[(E)-isobutoxyimino]-ethyl}-benzamide TFA salt]",100 to 1000
